Source: US20190084909A1, “F[…] COMPOUNDS, COMPOSITIONS AND USES THEREOF” (YISSUM RESEARCH DEVELOPMENT COMPANY OF THE HEBREW …, priority 2015, published 2019)
Values joined by “and” are separate entries in the source; they are usually repeats but may differ in a detail not shown here. Equal values may be shown once.

Tests used:
Swiss mice [1] = experiment: Elevated plus maze (EPM), mice, HU-474 IP; format: in vivo
Method: (§1) Male Wistar rats (220-250 g) and Swiss mice (25-30 g) originated from the Central Animal Farm of the School of Medicine of Ribeirio Preto (FMRP-USP) were maintained in groups of five animals per box (41×33×17 cm) in a temperature controlled room (24±2° C.) with a 12×12 h light-dark cycle. They received water and food ad libitum throughout the study period.
(§2) HU-474 (1, 3 and 10 mg/kg) was administered intraperitoneally (IP) in mice at 10 mL/kg volume and HU-475 (1, 3 and 10 nmol) was injected intra-dIPAG in rats. Both drugs were dissolved in 2% Tween 80 in sterile saline.
The wood EPM used to perform the experiments was located in a sound attenuated and temperature controlled room (23° C.), with one incandescent light (40 W) placed 1.3 m away from the maze. The apparatus consists of two opposing open arms (50×10 cm) without side walls, perpendicular to two enclosed arms (50×10×40 cm), with a central platform common to all arms (10×10 cm). The apparatus is elevated 50 cm above the ground and has an acrylic edge (1 cm) in the open arms to prevent animal falls. In this model, rodents naturally avoid the open arms, exploring more extensively the enclosed arms. Anxiolytic drugs increase the exploration in open arms without affecting the number of enclosed arms entries, which is usually used to assess general exploratory activity (File, 1992). Ten minutes after the last injection the animal was placed on the central platform of the maze with the head facing one of the enclosed arms. The test lasted for 5 min and was recorded. The animal behavior was analyzed with the help of the Anymaze Software (version 4.5, Stoelting). This software indicates the location of the animal in the EPM and automatically calculates the percentage of entries (Peo) and time spent in the open arms (Pto) and the number of entries in the enclosed arms (EA). Animals were only considered to enter an open or enclosed arm when 90% of their bodies were inside the region. All experiments were performed in the morning period (8 to 12 a.m.).
Similar to 5.1 except that the each arm measured 30×5 cm. 5.3 Forced Swimming Test (FST) Mice
(§3) Results from HU-475 and HU-474 tests in the elevated plus maze were analyzed by Kruskal-Wallis followed by Mann-Whitney tests. Data from animals tested in the FST were analyzed by one-way ANOVA followed by Duncan test.

Swiss mice [2] = experiment: Forced swimming test (FST), mice; format: in vivo
Method: as §1, §2
Animals were individually submitted for 6 min of forced swimming in glass cylinders (height 25 cm, diameter 17 cm) containing 10 cm of water. The mice were videotaped and the immobility time (characterized by slow movements necessary to avoid drowning) was measured during the last 4-min period. The water was changed after each trial to maintain the temperature at 23-25° C. and to prevent the influence of alarm substances (Zanelati et al., 2010).
as §3

male C57BL/6J mice = experiment: Pre-pulse inhibition (PPI) test, impairment induced by MK-801; format: in vivo
Method: The experiments were performed using male C57BL/6J mice weighting 25-30 g. The animals were maintained throughout the experimental period under standard laboratory conditions with free access to water and food will be used.
HU-474 (3 and 10 mg/kg) was dissolved in 2% Tween 80 in sterile saline (vehicle). MK-801 (a NMDA antagonist, 0.5 mg/kg, Sigma, USA) was dissolved in saline. Drugs were administered intraperitoneally (ip) at 10 mL/kg volume.
The animals (n=9-11/group) received i.p. administration of vehicle or HU-474 (3 and 10 mg/kg) followed, 30 minutes later, by saline or MK-801 (0.5 mg/kg), resulting in the following experimental groups: vehicle+saline, HU 10+saline, vehicle+MK-801, HU 3+MK-801, HU 10+MK-801. The animals were submitted to PPI test 20 minutes after the last drug injection.
The PPI was carried out in three consecutive steps. The first consisted of an acclimation period during which no stimulus was presented. In the second step, called habituation, only the stimulus that triggers the startle (pulse) was presented. […] During this session the stimuli are presented at regular intervals of 30 s, 8 presentations of each stimulus. The percentage of the PPI was expressed as the percent inhibition of startle amplitude in response to multiple presentations of the pulse preceded by pre-pulse (PP), depending on the amplitude of the response only to the pulse (P), which was obtained in the following formula: % PPI=100−((PP/P)×100). Using this formula 0% represents no difference between the amplitude of startle triggered only by the pulse or pulse preceded by the pre-pulse and therefore no pre-pulse inhibition. This transformation was performed in order to reduce the statistical variability attributable to differences between animals and represents a direct measure of pre-pulse inhibition (Issy et al., 2009).
The percentage of PPI was analyzed by repeated measures MANOVA with the treatment as the independent factor and the prepulse intensity (80, 85 and 90 dB) as repeated measure.

Male Swiss mice = experiment: Pre-pulse inhibition (PPI), impairment induced by amphetamine; format: in vivo
Method: as §1, with “Male” for “Male Wistar rats (220-250 g) and”, “Ribeirão” for “Ribeirio”
Cannabidiol (CBD; THC Pharm, 15-60 mg/kg) and HU-485 (1-10 mg/kg) were administered intraperitoneally (ip). All drugs were dissolved in 2% Tween 80 in sterile saline.
The PPI test was conducted simultaneously in two identical startle response systems (Med Associates, USA). A continuous acoustic signal provided a background white noise level of 65 dB. The pulse consists of a 105 dB white noise burst with a rise/decay of 5 ms and duration of 20 ms. The pre-pulse comprised pure 7000 Hz tones, 10 ms duration, with intensities set at 80, 85, and 90 dB. The setups were daily calibrated to ensure equal sensitivity throughout the experiments. Calibration was performed by adjusting the gain on the load cell amplifier to 150 arbitrary units (AU) at a standard weight appropriated for a 40 g mice. The limits of the load cell were −2047 to +2047 AU. Thirty min after the injection of the tested compounds mice received i.p. injections of amphetamine 10 mg/kg or vehicle. […] The first 10 pulse-alone trials allow for the within-session habituation to the startle stimulus and are not considered for PPI statistical analysis. The test consisted of 64 pseudo-random trials divided into eight different groups presented with an inter-stimulus interval of 30 s, and consisting of pulse alone (105 dB), pre-pulse alone (80, 85, or 90 dB), pre-pulse+pulse with 100 ms interval between pre-pulse and pulse, and no stimulus presented. […] Mean acoustic startle response to pulse-alone (P) trials and each pre-pulse+pulse (PP+P) trial was recorded for each subject. PPI was calculated by expressing the pre-pulse+pulse startle amplitude as a percentage of decrease from pulse-alone startle amplitude, according to the following formula: % PPI=100−[100×(PP+P/P)]. This transformation reduces statistical variability attributable to differences between animals and it is a direct PPI measure. Antipsychotic drugs typically attenuate PPI impairment induced by amphetamine.
Results were analyzed by one-way ANOVA followed by Duncan test. […]
Animals received a first injection of vehicle (V) or CBD, followed 30 min later, by vehicle (n=9) or amphetamine 10 mg/kg (V+amphetamine group=9 animals). PPI was evaluated at three-stimuli intensity (90, 85 and 80 dB). […]
Animals received a first injection of vehicle (V) or HU-485, followed 30 min later, by vehicle (n=7) or amphetamine 10 mg/kg (V+amphetamine group=7 animals). PPI was evaluated at three-stimuli intensity (90, 85 and 80 dB). […]

Swiss mice [3] = details: cited from earlier work
rats = details: Vogel punished licking test, intra-dlPAG; cited from earlier work
Male Wistar rats [4] = details: intra-dlPAG; doses tested 15, 30 and 60 nmol; cited from earlier work
Swiss mice [5] = details: i.p., doses tested 3, 10, 30 and 100 mg/kg; cited from earlier work
Swiss mice [6] = details: single administration i.p., MK801 0.3-1 mg/kg i.p.; 1 and 15 mg/kg also tested; cited from earlier work
Male Wistar rats [7] = experiment: Elevated plus maze (EPM), rats, microinjection into the dorsolateral periaqueductal gray; format: in vivo
Method: as §1, §2
Rats were submitted to a stereotaxic surgery to unilaterally implant cannulae (9.0 mm, 0.6 mm OD) into the dIPAG (coordinates: lateral: −1.9 mm; depth: −4.3 mm; angle: 16° from lambda; Paxinos and Watson, 2005), fixed to the skull with acrylic cement (Campos & Guimarães, 2008). The surgeries were performed under anesthesia with tribromoethanol 2.5% (10.0 mL/kg, IP) and immediately after the animals received Veterinary Pentabiotic (0.2 mL, intramuscular) and analgesic (Banamine, 1.0 mL/kg, subcutaneous) to prevent infections and decrease post-surgical pain. After surgery, animals underwent a recovery period of 5-7 days before the behavioral tests.
Animals received unilateral microinjections of vehicle or HU-475 into the dIPAG before being submitted to the behavioral tests. To this aim, microneedles (10.0 mm, 0.3 mm OD), connected to a microsyringe (Hamilton, USA, […]) through a segment of polyethylene (P10) were inserted into the guide cannulae. Solutions were injected with the help of an infusion pump (KD Scientific, USA). A 0.2 μL solution volume was injected over 1 min. After the injections, the needles remained inserted in the cannulae for additional 30 seconds to prevent drug reflux (Campos & Guimarães, 2008).
The wood EPM used to perform the experiments was located in a sound attenuated and temperature controlled room (23° C.), with one incandescent light (40 W) placed 1.3 m away from the maze. The apparatus consists of two opposing open arms (50×10 cm) without side walls, perpendicular to two enclosed arms (50×10×40 cm), with a central platform common to all arms (10×10 cm). The apparatus is elevated 50 cm above the ground and has an acrylic edge (1 cm) in the open arms to prevent animal falls. In this model, rodents naturally avoid the open arms, exploring more extensively the enclosed arms. […] The test lasted for 5 min and was recorded. The animal behavior was analyzed with the help of the Anymaze Software (version 4.5, Stoelting). […]
as §3

Question: What does the source list for C=C(C)[C@@H]1CCC(C)=CC1c1c(O)cc(CCCCC)c(F)c1O (stereo partly shown) [HU-474, 4′-fluoro-cannabidiol]?
Answer: number of enclosed arms entries (Swiss mice [1]; 1, 3 and 10 mg/kg IP): No effect; percentage of entries onto the open arms (Swiss mice [1]; 1, 3 and 10 mg/kg IP): No effect; percentage of time spent in the open arms (Swiss mice [1]; 1, 3 and 10 mg/kg IP, vs vehicle, X2=8.13, p<0.05): increased; effective dose (anxiolytic-like effect in the EPM) (Swiss mice [1]; systemic administration, bell-shaped dose-response curve): 3 mg/kg; immobility time in the FST (Swiss mice [2]; dose of 3 mg/kg IP (printed 3 m/kg), p=0.019): decreased; immobility time in the FST (Swiss mice [2]; doses of 1 and 10 mg/kg IP): ineffective; potency relative to CBD (Swiss mice [2]; forced swimming test, comparison of effective doses): 10 times; effect on MK-801 PPI disruption (male C57BL/6J mice; 10 mg/kg i.p., MK-801 0.5 mg/kg, all prepulse intensities (80, 85, 90 dB), P<0.05): attenuated; effective dose against MK-801 PPI disruption (male C57BL/6J mice; i.p., 3 and 10 mg/kg tested): 10 mg/kg

Question: For C=C(C)[C@@H]1CCC(C)=C[C@H]1c1c(O)cc(CCCCC)cc1O [CBD, Cannabidiol], which “effect on PPI impairment by amphetamine” value (Male Swiss mice; CBD 30 and 60 mg/kg ip, intensities of 85 and 80 dB, amphetamine 10 mg/kg) is on record?
Answer: Its value is “attenuated”.

Question: And the “dose able to attenuate the hyper-locomotion induced by MK801” value (Swiss mice [3])?
Answer: Its value is 30 mg/kg.

Question: And the “effective doses, hyperlocomotion induced by d-amphetamine” value (Swiss mice [3])?
Answer: Its value is 30 mg/kg and 60 mg/kg.

Question: What about the “dose producing an anxiolytic-like effect” value (rats) of the same molecule?
Answer: Its value is 30 nmol.

Question: What about the “effective dose (anxiolytic-like effect in the EPM)” value (Male Wistar rats [4]) of the same molecule?
Answer: The value was 30 nmol.

Question: What about the “dose producing an antidepressant-like effect in the forced swimming test” value (Swiss mice [5]) of the same molecule?
Answer: The value was 30 mg/kg.

Question: What about the “effective dose attenuating PPI deficits caused by MK801” value (Swiss mice [6]) of the same molecule?
Answer: The value was 5 mg/kg.

Question: For CC(N)Cc1ccccc1 (stereo not shown) [amphetamine, reference compound], which “effect on PPI” value (Male Swiss mice; amphetamine 10 mg/kg i.p., all intensities (90, 85, 80 dB), Duncan p<0.05) is on record?
Answer: The value was “impaired PPI”.

Question: With C[C@]12N[C@H](Cc3ccccc31)c1ccccc12 [MK-801, reference compound] as the molecule, how does the “effect on PPI” value (male C57BL/6J mice; MK-801 0.5 mg/kg i.p., all prepulse intensities, P<0.05) read?
Answer: Its value is “significant PPI disruption”.

Question: What does the source list for C=C(CF)[C@@H]1CCC(C)=CC1c1c(OC(C)=O)cc(CCCCC)cc1OC(C)=O (stereo partly shown) [HU-475, 10-fluoro-cannabidiol diacetate]?
Answer: number of enclosed arm entries (Male Wistar rats [7]; 1, 3 and 10 nmol intra-dlPAG): No effect; percentage of time spent in the open arms (Male Wistar rats [7]; 1, 3 and 10 nmol intra-dlPAG, vs vehicle, X2=8.5, p=0.075 (trend)): tended to do the same; percentage of entries onto the open arms (Male Wistar rats [7]; 1, 3 and 10 nmol intra-dlPAG, vs vehicle, X2=9.66, p<0.05): increased; potency relative to CBD (Male Wistar rats [7]; EPM, intra-dlPAG injection, comparison of effective doses): 10 times
